Publication PMC12866179, “Oxidized MIF is an Alzheimer’s disease drug target relaying external risk factors to tau pathology” (Cell Reports Medicine, 2025)

Key:
wt-MIF and MIF-C80W = assay: SEC-HPLC-MALS of MIF with or without compound; parameters: species or system human; details: 100 μM MIF, 100 μM PAV-174
Protocol: The samples for SEC-HPLC-MALS were 100 μM of MIF (WT or mutant C80W) in 20 mM phosphate buffer, with or without compound PAV-174 (100 μM).
The HPLC-MALS was performed at 0.5 mL/min and 25°C with an Agilent 1200 series HPLC system and a size exclusion column TSKgel G2000SWXL from Tosoh bioscience. The detection was performed recording the UV absorbance at 280 nm with the HPLC detector and the light scattering with a miniDawn Treos spectrometer from Wyatt. The molecular weight of the detected species is calculated using the extinction coefficients at 280 nm (12950 M^−1 cm^−1 for WT and 18450 M^−1 cm^−1 for C80W), absorbance at 280 nm and the Rayleigh ratio using the built-in function in Astra software.

MIF-wt and MIF-C80W = assay: Stabilization of transiently expressed MIF in HEK-MIF-knockdown cells; assay type: cell-based, human; details: HEK-MIF-KO cells transfected with rescue constructs
Protocol: Transient transfection of HEK-MIF-knockdown cells with MIF-rescue constructs were carried out with lipofectamine 3000 according to the manufacturer’s recommendations. Briefly, 5x10^5 HEK-MIF-ko cells were seeded into 12-well plates. At the next day the cells were transfected with 2.5 μg of vector DNA. Cells were washed twice with PBS and lysed in PBS/1% NP40 48h after transfection.

HSV-1 = assay: Plaque assay of HSV-1-infected SH-SY5Y-tau-P301S control and MIF-knockdown cells; assay type: cell-based, HSV-1 KOS strain
Protocol: Virus titer determination was carried out in 25-cm^2 flasks or 6-well plates with confluent Vero cells. The virus stock was serially diluted in Medium 199. 1 mL of each of the dilutions was added to the Vero cells in duplicates and incubated for 2h. Then the inoculum was aspirated and DMEM supplemented with 5% NBCS and 7.5 μg/mL human immunoglobulin (Sigma) was added. After two days the cells were washed twice with PBS and fixed with MeOH for 5 min at RT. Then 1:10 diluted KaryoMax Giemsa stain solution (Gibco) was added to the cells and incubated for 20 min at RT. Following washing with water the plaques were counted under the microscope and the titer was calculated.
4x10^5 Vero cells, 8x10^5 SH-SY5Y or 2x10^6 differentiated LUHMES (differentiation day 6) cells were seeded into 12-well plates. After 24h the cells were treated with compounds (as indicated in the figures) and after 1h they were infected with HSV-1 applying MOIs as described in the figures. After 20h (or at indicated time points) cells were either washed twice with PBS, then lysed in cold PBS/1% NP40 including the cOmplete EDTA-free protease inhibitor cocktail (Roche) and phosphatase inhibitor cocktail (Sigma) or virus was released by freeze-thawing and ultrasonic treatment for analysis in viral plaque assay (see above).
[…] Two-wa y ANOVA (Sidak´s post-hoc) […]

## CCc1cc(N2CCCC2)cc2[s+]c3cc(N4CCCC4)cc(C)c3nc12.[I-] [PAV-174, 3,7-Di(pyrrolidine-1-yl) 1-ethyl-9-methyl-phenothiazin-5-ium iodide]
wt-MIF and MIF-C80W
  effect on monomer-trimer equilibrium / oligomerization of MIF: does not perturb the monomer-trimer equilibrium
MIF-wt and MIF-C80W
  stabilization of MIF-wt and MIF-C80W: significant stabilization
HSV-1
  HSV-1 titer-lowering effect in MIF-knockdown cells: did not exert comparable titer-lowering effects
